From PubChem BioAssay AID328 (DTP/NCI, 2004)
Several values for one entry are separate records, joined by “and”; a condition that tells them apart may be missing. Equal entries are not always repeated. Inconclusive results and toxic doses are left out.

System: BDF1 mice, P388 leukemia ip, median survival T/C
Experiment: NCI In Vivo Anticancer Drug Screen. Data for tumor model P388 Leukemia (intraperitoneal) in B6D2F1 (BDF1) mice
Conditions: endpoint: median survival time, higher = longer survival
How it was run: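 Survival ratio, drug arm over vehicle arm, in mice with a transplanted tumour.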

[1] = dose: 100.0 mg/kg/injection, schedule: Q01DX009 (ip), vehicle: saline with Tween-80
[2] = dose: 200.0 mg/kg/injection, schedule: Q01DX009 (ip), vehicle: saline with Tween-80
[3] = dose: 100.0 mg/kg/injection, schedule: Q04DX003 (ip), vehicle: Klucel (hydroxypropylcellulose) (HPC)
[4] = dose: 200.0 mg/kg/injection, schedule: Q04DX003 (ip), vehicle: Klucel (hydroxypropylcellulose) (HPC)
[5] = dose: 400.0 mg/kg/injection, schedule: Q04DX003 (ip), vehicle: Klucel (hydroxypropylcellulose) (HPC)
[6] = dose: 25.0 mg/kg/injection, schedule: Q01DX009 (ip), vehicle: Klucel (hydroxypropylcellulose) (HPC)
[7] = dose: 50.0 mg/kg/injection, schedule: Q01DX009 (ip), vehicle: Klucel (hydroxypropylcellulose) (HPC)
[8] = dose: 100.0 mg/kg/injection, schedule: Q01DX009 (ip), vehicle: Klucel (hydroxypropylcellulose) (HPC)
[9] = dose: 50.0 mg/kg/injection, schedule: Q01DX009 (ip), vehicle: saline with Tween-80
[10] = dose: 200.0 mg/kg/injection, schedule: Q01DX009 (ip), vehicle: Klucel (hydroxypropylcellulose) (HPC)
[11] = dose: 400.0 mg/kg/injection, schedule: Q01DX009 (ip), vehicle: Klucel (hydroxypropylcellulose) (HPC)
[12] = dose: 100.0 mg/kg/injection, schedule: Q04DX003 (ip), vehicle: saline with Tween-80
[13] = dose: 200.0 mg/kg/injection, schedule: Q04DX003 (ip), vehicle: saline with Tween-80
[14] = dose: 400.0 mg/kg/injection, schedule: Q04DX003 (ip), vehicle: saline with Tween-80

## c1ccc2cc3nc4cc5ccccc5cc4nc3cc2c1
[1]
  T/C: 99 % of control
[2]
  T/C: 100 % of control
dose: 400.0 mg/kg/injection, schedule: Q01DX009 (ip), vehicle: saline with Tween-80
  T/C: 100 % of control

## CCN(CC)C(=S)Oc1cc(C)nc(N2CCCC2)n1
dose: 50.0 mg/kg/injection, schedule: Q01DX005 (ip), vehicle: saline with Tween-80
  T/C: 95 % of control
dose: 100.0 mg/kg/injection, schedule: Q01DX005 (ip), vehicle: saline with Tween-80
  T/C: 101 % of control
dose: 200.0 mg/kg/injection, schedule: Q01DX005 (ip), vehicle: saline with Tween-80
  T/C: 97 % of control

## CCCCCCN(CCCCCC)P(=O)(N1CC1)N1CC1
dose: 14.0 mg/kg/injection, schedule: Q04DX003 (ip), vehicle: saline
  T/C: 95 % of control
dose: 21.0 mg/kg/injection, schedule: Q04DX003 (ip), vehicle: saline
  T/C: 104 % of control
dose: 33.0 mg/kg/injection, schedule: Q04DX003 (ip), vehicle: saline with Tween-80
  T/C: 100 % of control and 118 % of control
dose: 50.0 mg/kg/injection, schedule: Q04DX003 (ip), vehicle: saline with Tween-80
  T/C: 150 % of control
dose: 75.0 mg/kg/injection, schedule: Q04DX003 (ip), vehicle: saline with Tween-80
  T/C: 181 % of control

## Cc1ccc(COC(=O)c2ccccc2)cc1
dose: 100.0 mg/kg/injection, schedule: Q01DX001 (ip), vehicle: Klucel (hydroxypropylcellulose) (HPC)
  T/C: 104 % of control
dose: 200.0 mg/kg/injection, schedule: Q01DX001 (ip), vehicle: Klucel (hydroxypropylcellulose) (HPC)
  T/C: 95 % of control
dose: 400.0 mg/kg/injection, schedule: Q01DX001 (ip), vehicle: Klucel (hydroxypropylcellulose) (HPC)
  T/C: 104 % of control

## C/C(N=Nc1ccccc1[N+](=O)[O-])=N\Nc1ccccc1
[3]
  T/C: 122 % of control
[4]
  T/C: 122 % of control
[5]
  T/C: 113 % of control

## COc1cc(C=Nc2ccc(-c3nc(Cc4ccccc4)sc3C)cc2)ccc1N(CCCl)CCCl
dose: 3.13 mg/kg/injection, schedule: Q01DX009 (ip), vehicle: Klucel (hydroxypropylcellulose) (HPC)
  T/C: 196 % of control
dose: 6.25 mg/kg/injection, schedule: Q01DX009 (ip), vehicle: Klucel (hydroxypropylcellulose) (HPC)
  T/C: 206 % of control
dose: 12.5 mg/kg/injection, schedule: Q01DX009 (ip), vehicle: Klucel (hydroxypropylcellulose) (HPC)
  T/C: 221 % of control
[6]
  T/C: 194 % of control and 198 % of control
[7]
  T/C: 108 % of control

## C/C=C1/CN(C)C2Cc3c([nH]c4ccccc34)C(c3cc4c5c([nH]c4cc3OC)C3(C(=O)OC)CC4CC(CC)C3N(CC5)C4)CC1C2C(=O)OC (stereo not drawn)
dose: 1.3 mg/kg/injection, schedule: Q01DX009 (ip), vehicle: alcohol
  T/C: 88 % of control
dose: 4.0 mg/kg/injection, schedule: Q01DX009 (ip), vehicle: alcohol
  T/C: 87 % of control
dose: 12.0 mg/kg/injection, schedule: Q01DX009 (ip), vehicle: alcohol
  T/C: 88 % of control

## C=C1C(=O)OC2C3OC(C)(CCC(OC(C)=O)C3COC(C)=O)CC(OC(=O)/C(=C\C)COC(C)=O)C12 (stereo not drawn)
[6]
  T/C: 106 % of control
[7]
  T/C: 106 % of control
[8]
  T/C: 118 % of control

## COc1cccc2c1C(=O)c1c(O)c3c(c(O)c1C2=O)CC(O)(/C(C)=N/NC(=O)c1cc(C(F)(F)F)cc(C(F)(F)F)c1)CC3OC1CC(N)C(O)C(C)O1 (stereo not drawn)
dose: 3.13 mg/kg/injection, schedule: Q04DX003 (ip), vehicle: water
  T/C: 113 % of control
dose: 6.25 mg/kg/injection, schedule: Q04DX003 (ip), vehicle: water
  T/C: 109 % of control
dose: 12.5 mg/kg/injection, schedule: Q04DX003 (ip), vehicle: water
  T/C: 153 % of control
dose: 25.0 mg/kg/injection, schedule: Q04DX003 (ip), vehicle: water
  T/C: 153 % of control
dose: 50.0 mg/kg/injection, schedule: Q04DX003 (ip), vehicle: water
  T/C: 118 % of control

## Clc1ccc2c(c1)nnn2OC1CCCC1
[9]
  T/C: 97 % of control
[1]
  T/C: 88 % of control
[2]
  T/C: 90 % of control

## CCCCCCCCC(=O)N1CC1
[7]
  T/C: 95 % of control
[8]
  T/C: 118 % of control
[3]
  T/C: 109 % of control
[10]
  T/C: 86 % of control
[4]
  T/C: 113 % of control

## Cc1ccc(C)c(NC(=O)c2ccccc2N)c1
[8]
  T/C: 100 % of control
[3]
  T/C: 104 % of control
[10]
  T/C: 100 % of control
[4]
  T/C: 104 % of control
[11]
  T/C: 90 % of control
[5]
  T/C: 104 % of control

## N#Cc1nc2c(n(O)c1=N)CCCCCCCCCC2
[9]
  T/C: 95 % of control
[1]
  T/C: 92 % of control
[2]
  T/C: 92 % of control

## CCc1c(/C=C2/OC(=O)NC2=O)[nH]c(=S)[nH]c1=O
[12]
  T/C: 100 % of control
[13]
  T/C: 91 % of control
[14]
  T/C: 104 % of control

## CCOP1(=S)OCC(C)O1 (stereo not drawn)
dose: 100.0 mg/kg/injection, schedule: Q04DX002 (ip), vehicle: saline with Tween-80
  T/C: 105 % of control
dose: 200.0 mg/kg/injection, schedule: Q04DX002 (ip), vehicle: saline with Tween-80
  T/C: 99 % of control
dose: 400.0 mg/kg/injection, schedule: Q04DX002 (ip), vehicle: saline with Tween-80
  T/C: 105 % of control

## c1ccc2c(c1)OCCOCCOc1ccccc1OCCOCCO2
dose: 4.69 mg/kg/injection, schedule: Q01DX009 (ip), vehicle: saline with Tween-80
  T/C: 100 % of control
dose: 9.38 mg/kg/injection, schedule: Q01DX009 (ip), vehicle: saline with Tween-80
  T/C: 90 % of control
dose: 18.7 mg/kg/injection, schedule: Q01DX009 (ip), vehicle: saline with Tween-80
  T/C: 90 % of control
[12]
  T/C: 100 % of control
dose: 150.0 mg/kg/injection, schedule: Q01DX009 (ip), vehicle: saline with Tween-80
  T/C: 89 % of control
[13]
  T/C: 100 % of control
[14]
  T/C: 105 % of control

## C(=N\Nc1nc2ccccc2s1)/c1ccccc1
[8]
  T/C: 95 % of control
[10]
  T/C: 109 % of control
[11]
  T/C: 90 % of control

## C=CCNC(=O)c1ccccc1OCC(=O)O
dose: 100.0 mg/kg/injection, schedule: Q01DX009 (ip), vehicle: gum acacia
  T/C: 100 % of control
dose: 100.0 mg/kg/injection, schedule: Q04DX003 (ip), vehicle: gum acacia
  T/C: 100 % of control
dose: 200.0 mg/kg/injection, schedule: Q01DX009 (ip), vehicle: gum acacia
  T/C: 95 % of control
dose: 200.0 mg/kg/injection, schedule: Q04DX003 (ip), vehicle: gum acacia
  T/C: 91 % of control
dose: 400.0 mg/kg/injection, schedule: Q01DX009 (ip), vehicle: gum acacia
  T/C: 91 % of control
dose: 400.0 mg/kg/injection, schedule: Q04DX003 (ip), vehicle: gum acacia
  T/C: 108 % of control

## NC(N)=Nc1ccc(C(=O)Oc2c(Cl)cc([N+](=O)[O-])cc2Cl)cc1
dose: 0.18 mg/kg/injection, schedule: Q01DX009 (ip), vehicle: saline
  T/C: 94 % of control
dose: 0.39 mg/kg/injection, schedule: Q01DX009 (ip), vehicle: saline
  T/C: 92 % of control
dose: 0.78 mg/kg/injection, schedule: Q01DX009 (ip), vehicle: saline
  T/C: 96 % of control
dose: 1.56 mg/kg/injection, schedule: Q01DX009 (ip), vehicle: saline
  T/C: 102 % of control
dose: 3.12 mg/kg/injection, schedule: Q01DX009 (ip), vehicle: saline
  T/C: 86 % of control
dose: 50.0 mg/kg/injection, schedule: Q04DX003 (ip), vehicle: saline
  T/C: 95 % of control
dose: 100.0 mg/kg/injection, schedule: Q04DX003 (ip), vehicle: saline
  T/C: 113 % of control

## CNc1ccc2c(c1)C(=O)c1c(C)n(C)c3cccc-2c13
dose: 12.5 mg/kg/injection, schedule: Q01DX005 (ip), vehicle: saline with Tween-80
  T/C: 98 % of control
dose: 25.0 mg/kg/injection, schedule: Q01DX005 (ip), vehicle: saline with Tween-80
  T/C: 98 % of control

## CCOC(CN1CCN(CC(C)C(=O)c2ccccc2)CC1)c1ccccc1 (stereo not drawn)
[9]
  T/C: 109 % of control
[1]
  T/C: 118 % of control

## O=[N+]([O-])c1ccc(N2CCCCC2)c2c1no[n+]2[O-]
dose: 15.0 mg/kg/injection, schedule: Q01DX009 (ip), vehicle: saline with Tween-80
  T/C: 88 % of control
dose: 30.0 mg/kg/injection, schedule: Q01DX009 (ip), vehicle: saline with Tween-80
  T/C: 93 % of control
dose: 60.0 mg/kg/injection, schedule: Q01DX009 (ip), vehicle: saline with Tween-80
  T/C: 95 % of control

## CCCCCCCCCCCCS(=O)(=O)O (tested in a mixture with another compound)
[3]
  T/C: 95 % of control
[4]
  T/C: 90 % of control
